Test results reported in patent publication US20220152101A1, “CELLULAR IMMUNOTHERAPY COMBINATION” (CARSGEN THERAPEUTICS CO., LTD., priority 2019, published 2022).

Tested on: Panc02/Luc-GFP-Claudin 18.2 cells
Experiment: In vivo inhibitory effect of Gemcitabine combined with CAR T cells on in situ mouse pancreatic cancer
Parameters: species or system C57BL/6 mice
Method: The pancreases of 6-week-old C57BL/6 mice are inoculated with 2×10^5 Panc02/Luc-GFP-Claudin 18.2 cells in situ, and is recorded as Day 0 in the tumor cell inoculation diary.
On the 6th day after tumor inoculation (i.e., Day 6), mouse T cells are taken and constructed according to Example 1 to construct the 8E5-2I-mBBZ CAR T cell line. At the same time, the mice are subjected to in vivo imaging, and the mice are randomly grouped according to the tumor burden of the mice. The main groups are:
Group 1: UTD group, that is, the group administrated only untransfected mouse T cell treatment;
Group 2: CART group, that is, the group administrated only 8E5-2I-mBBZ CAR T cell therapy;
Group 3: Gemcitabine group, that is, the group administrated only Gemcitabine; and
Group 4: Gemcitabine+CART group, that is, the group administrated 8E5-2I-mBBZ CAR T cells combined with Gemcitabine treatment.
On the 6th, 7th, and 8th day (i.e., Day 6, 7, and 8), mice in the Gemcitabine group and Gemcitabine+CART group are administrated 30 mg/kg Gemcitabine for treatment, intraperitoneal administration, once a day. […]

Cl.Nc1ccn([C@@H]2O[C@H](CO)[C@@H](O)C2(F)F)c(=O)n1 [Gemcitabine, 2′-deoxy-2′, 2′-difluorocytidine hydrochloride]
tumor burdens compared to the UTD group (Day 13, in vivo imaging, FIG. 2, Gemcitabine 30 mg/kg i.p. Day 6-8, 3×10^6 CAR-T cells tail vein Day 9): significantly decreased | tumor growth (in vivo imaging data) (FIG. 3, Gemcitabine+CART compared with the UTD group, P<0.05): continue to grow
